Assays:
morningglory = test: Test A preemergence; type: in vivo, Ipomoea spp.
Summary of the method: (§1)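 Scoring was visual, on a scale where 100 means complete control and 0 means no effect, comparing treated with untreated plants around 10 days post-application. Compounds in surfactant-containing non-phytotoxic solvent were sprayed onto soil preemergence or onto one- to two-leaf seedlings (2–10 cm) postemergence.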

foxtail, giant [1] = test: Test C preemergence; type: in vivo, Setaria faberii; settings: for Plant response rating (scale of 0 to 100), Foxtail, Giant: 250 g ai/ha
Excerpt: (§2) Seeds of plant species selected from blackgrass (Alopecurus myosuroides), ryegrass, Italian (Italian ryegrass, Lolium multiflorum), wheat (winter wheat, Triticum aestivum), galium (catchweed bedstraw, Galium aparine), corn (Zea mays), crabgrass, large (large crabgrass, Digitaria sanguinalis), foxtail, giant (giant foxtail, Setaria faberii), johnsongrass (Sorghum halepense), lambsquarters (Chenopodium album), morningglory (Ipomoea coccinea), nutsedge, yellow (yellow nutsedge, Cyperus esculentus), pigweed (redroot pigweed, Amaranthus retroflexus), ragweed (common ragweed, Ambrosia elation), soybean (Glycine max), barnyardgrass (Echinochloa crus-galli), oilseed rape (Brassica napus), waterhemp (common waterhemp, Amaranthus rudis), oat, wild (wild oat, Avena fatua), kochia (Kochia scoparia), Surinam grass (Brachiaria decumbens), foxtail, green (green foxtail, Setaria viridis), goosegrass (Eleusine indica), bromegrass, downy (downy bromegrass, Bromus tectorum), nightshade (eastern black nightshade, Solanum ptycanthum), cocklebur (common cocklebur, Xanthium strumarium), cupgrass, woolly (woolly cupgrass, Eriochloa villosa), bermudagrass (Cynodon dactylon), sunflower, (common oilseed sunflower, Helianthus annuus), Russian thistle (Salsola kali), and velvetleaf (Abutilon theophrasti) were planted into a blend of loam soil and sand and treated preemergence with test chemicals formulated in a non-phytotoxic solvent mixture which included a surfactant.
(§3) At the same time, plants selected from these crop and weed species and also chickweed (common chickweed, Stellaria media), canarygrass (littleseed canarygrass, Phalaris minor), and deadnettle (henbit deadnettle, Lamium amplexicaule), were planted in pots containing Redi-Earth® planting medium (Scotts Company, 14111 Scottslawn Road, Marysville, Ohio 43041) comprising spaghnum peat moss, vermiculite, wetting agent and starter nutrients and treated with postemergence applications of test chemicals formulated in the same manner. Plants ranged in height from 2 to 18 cm (1- to 4-leaf stage) for postemergence treatments. Treated plants and controls were maintained in a greenhouse for 13 to 15 days, after which time all species were compared to controls and visually evaluated. Plant response ratings, summarized in Table C, are based on a scale of 0 to 100 where 0 is no effect and 100 is complete control. A dash (-) response means no test result.

foxtail, giant [2] = test: Test A preemergence; type: in vivo, Setaria faberii
Summary of the method: as §1

barnyardgrass [3] = test: Test C preemergence; type: in vivo, Echinochloa crus-galli; settings: for Plant response rating (scale of 0 to 100), Barnyardgrass: 250 g ai/ha
Excerpt: as §2, §3

ragweed = test: Test C preemergence; type: in vivo, Ambrosia elation
Excerpt: as §2, §3

velvetleaf [4] = test: Test A postemergence; type: in vivo, Abutilon theophrasti
Summary of the method: as §1

barnyardgrass [5] = test: Test A preemergence; type: in vivo, Echinochloa crus-galli
Summary of the method: as §1

velvetleaf [6] = test: Test A preemergence; type: in vivo, Abutilon theophrasti
Summary of the method: as §1

corn = test: Test C preemergence; type: in vivo, Zea mays; settings: for Plant response rating (scale of 0 to 100), Corn: 250 g ai/ha
Excerpt: as §2, §3

barnyardgrass [7] = test: Test B flood; type: in vivo, Echinochloa crus-galli; settings: 250 g ai/ha, visual rating on 0 to 100 scale (0 no effect, 100 complete control), 13 to 15 days
Summary of the method: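 Plants were grown to the 2-leaf stage, then pots were flooded to 3 cm above the soil and compounds were applied directly into the paddy water. Water depth was held for the whole test; after 13 to 15 days in a greenhouse, injury was visually rated against untreated controls (0 = no effect, 100 = complete control).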

johnsongrass = test: Test C preemergence; type: in vivo, Sorghum halepense; settings: for Plant response rating (scale of 0 to 100), Johnsongrass: 250 g ai/ha
Excerpt: as §2, §3

crabgrass, large = test: Test C preemergence; type: in vivo, Digitaria sanguinalis; settings: for Plant response rating (scale of 0 to 100), Crabgrass, Large: 250 g ai/ha
Excerpt: as §2, §3

ryegrass, Italian = test: Test C preemergence; type: in vivo, Lolium multiflorum
Excerpt: as §2, §3

oilseed rape = test: Test C preemergence; type: in vivo, Brassica napus
Excerpt: as §2, §3

[8] = Preemergence, 500 g ai/ha, 0 to 100 scale, 0 no effect, 100 complete control
[9] = preemergence, 125 g ai/ha, visual injury, 0 to 100 scale, approx. 10 days
[10] = preemergence, 31 g ai/ha, visual rating, scale 0 to 100 (0 no effect, 100 complete control), 13 to 15 days
[11] = preemergence, 62 g ai/ha, 13 to 15 days, scale 0 to 100, 0 = no effect, 100 = complete control
[12] = preemergence, 125 g ai/ha, scale 0 to 100, 0 is no effect, 100 is complete control
[13] = preemergence, 31 g ai/ha, scale 0 to 100 (0 no effect, 100 complete control), 13 to 15 days
[14] = Postemergence, 500 g ai/ha, visual rating after approx. 10 days, 0 to 100 scale (0 no effect, 100 complete control)
[15] = postemergence, 125 g ai/ha, about 10 days, visual rating on 0 to 100 scale (0 no effect, 100 complete control)
[16] = preemergence, 500 g ai/ha, visual injury after approx. 10 days, 0 to 100 scale (0 no effect, 100 complete control)
[17] = Preemergence, 16 g ai/ha, scale 0 to 100
[18] = preemergence, 125 g ai/ha, visual injury approx. 10 days after treatment

Row | Structure (SMILES) | Morningglory plant response rating (morningglory; [9]) | Foxtail, Giant plant response rating (foxtail, giant [1]; [10]) | Plant response rating, Foxtail, Giant (foxtail, giant [1]; [11]) | Foxtail, Giant plant response rating (foxtail, giant [1]; [12]) | Foxtail, Giant plant response rating (foxtail, giant [2]; [9]) | Barnyardgrass plant response rating (barnyardgrass [3]; [13]) | Plant response rating, Barnyardgrass (barnyardgrass [3]; [11]) | Barnyardgrass plant response rating (barnyardgrass [3]; [12]) | Velvetleaf plant response rating (velvetleaf [4]; [14]) | Velvetleaf plant response rating (velvetleaf [4]; [15]) | Barnyardgrass plant response rating (barnyardgrass [5]; [9]) | Velvetleaf plant response rating (velvetleaf [6]; [9]) | Corn plant response rating (corn; [10]) | Plant response rating, Corn (corn; [11]) | Corn plant response rating (corn; [12]) | Plant response rating, Barnyardgrass (barnyardgrass [7]) | Johnsongrass plant response rating (johnsongrass; [10]) | Plant response rating, Johnsongrass (johnsongrass; [11]) | Foxtail, Giant plant response rating (foxtail, giant [2]; [16]) | Barnyardgrass plant response rating (barnyardgrass [5]; [16]) | other results
1 | CCc1cc(C(=O)NCC(F)(F)F)nn1Cc1ccnc(C(F)(F)F)c1 [Compound 78, 5-ethyl-N-(2,2,2-trifluoroethyl)-1-[[(2-trifluoromethyl)-4-pyridinyl]methyl]-1H-pyrazole-3-carboxamide] | 100 | 90 | 98 | 98 | 100 | 100 | 100 | 100 | 100 | 100 | 100 | 100 | 60 | 65 | 95 | 50 | 85 | 95 | – | – | Morningglory plant response rating (morningglory; [8]): 100; Plant response rating (scale of 0 to 100), Foxtail, Giant (foxtail, giant [1]; Preemergence): 100; Foxtail, Giant plant response rating (foxtail, giant [2]; [8]): 100; Plant response rating (scale of 0 to 100), Barnyardgrass (barnyardgrass [3]; Preemergence): 100; Plant response rating (scale of 0 to 100), Ragweed (ragweed; Preemergence, 250 g ai/ha): 100; Ragweed plant response rating (ragweed; [10]): 80; Plant response rating, Ragweed (ragweed; [11]): 98; Ragweed plant response rating (ragweed; [12]): 98; Barnyardgrass plant response rating (barnyardgrass [5]; [8]): 100; Velvetleaf plant response rating (velvetleaf [6]; [8]): 100; Plant response rating (scale of 0 to 100), Corn (corn; Preemergence): 98; Plant response rating (scale of 0 to 100), Johnsongrass (johnsongrass; Preemergence): 100; Johnsongrass plant response rating (johnsongrass; [12]): 100; Plant response rating (scale of 0 to 100), Crabgrass, Large (crabgrass, large; Preemergence): 100; Crabgrass, Large plant response rating (crabgrass, large; [10]): 100; Plant response rating, Crabgrass, Large (crabgrass, large; [11]): 100; Crabgrass, Large plant response rating (crabgrass, large; [12]): 100
2 | CCc1cc(C(=O)NOC(C)C)nn1Cc1ccnc(C(F)(F)F)c1 [Compound 101] | 80 | 80 | 98 | 100 | 100 | 75 | 100 | 100 | 80 | 50 | 100 | 40 | 0 | 95 | 100 | 0 | 20 | 40 | 100 | 100 | Morningglory plant response rating (morningglory; [16]): 100; Plant response rating, Ryegrass, Italian (ryegrass, Italian; [17]): 0; Ryegrass, Italian plant response rating (ryegrass, Italian; [10]): 30; Plant response rating, Ryegrass, Italian (ryegrass, Italian; [11]): 60; Ryegrass, Italian plant response rating (ryegrass, Italian; [12]): 100; Plant response rating, Foxtail, Giant (foxtail, giant [1]; [17]): 15; Plant response rating, Barnyardgrass (barnyardgrass [3]; [17]): 5; Velvetleaf plant response rating (velvetleaf [6]; [16]): 100; Plant response rating, Corn (corn; [17]): 0; Plant response rating, Oilseed Rape (oilseed rape; [17]): 75; Oilseed Rape plant response rating (oilseed rape; [10]): 90; Plant response rating, Oilseed Rape (oilseed rape; [11]): 98; Oilseed Rape plant response rating (oilseed rape; [12]): 100; Plant response rating, Johnsongrass (johnsongrass; [17]): 0; Johnsongrass plant response rating (johnsongrass; [12]): 75; Plant response rating, Crabgrass, Large (crabgrass, large; [17]): 65; Crabgrass, Large plant response rating (crabgrass, large; [10]): 80; Plant response rating, Crabgrass, Large (crabgrass, large; [11]): 100; Crabgrass, Large plant response rating (crabgrass, large; [12]): 100
3 | CCc1cc(C(=O)NC(C)C)nn1Cc1ccnc(C(F)(F)F)c1 [Compound 103] | 100 | 100 | 100 | 100 | 100 | 100 | 100 | 100 | 80 | 70 | 100 | 100 | 75 | 100 | 100 | 40 | 85 | 100 | 100 | 100 | Morningglory plant response rating (morningglory; [16]): 100; Plant response rating (scale of 0 to 100), Ryegrass, Italian (ryegrass, Italian; Preemergence, 250 g ai/ha): 98; Ryegrass, Italian plant response rating (ryegrass, Italian; [10]): 75; Plant response rating, Ryegrass, Italian (ryegrass, Italian; [11]): 95; Ryegrass, Italian plant response rating (ryegrass, Italian; [12]): 95; Plant response rating (scale of 0 to 100), Foxtail, Giant (foxtail, giant [1]; Preemergence): 100; Plant response rating (scale of 0 to 100), Barnyardgrass (barnyardgrass [3]; Preemergence): 100; Velvetleaf plant response rating (velvetleaf [6]; [16]): 100; Plant response rating (scale of 0 to 100), Corn (corn; Preemergence): 100; Plant response rating (scale of 0 to 100), Oilseed Rape (oilseed rape; Preemergence, 250 g ai/ha): 100; Oilseed Rape plant response rating (oilseed rape; [10]): 100; Plant response rating, Oilseed Rape (oilseed rape; [11]): 100; Oilseed Rape plant response rating (oilseed rape; [12]): 100; Plant response rating (scale of 0 to 100), Johnsongrass (johnsongrass; Preemergence): 100; Johnsongrass plant response rating (johnsongrass; [12]): 100; Plant response rating (scale of 0 to 100), Crabgrass, Large (crabgrass, large; Preemergence): 100; Crabgrass, Large plant response rating (crabgrass, large; [10]): 100; Plant response rating, Crabgrass, Large (crabgrass, large; [11]): 100; Crabgrass, Large plant response rating (crabgrass, large; [12]): 100
4 | CCCc1cc(C(=O)NCC(F)(F)F)nn1Cc1cc(C(F)(F)F)nn1C [Compound 138] | 90 | – | – | – | 100 | – | – | – | – | 60 | 100 | 100 | – | – | – | 50 | – | – | 100 | 100 | Morningglory plant response rating (morningglory; [16]): 100; Velvetleaf plant response rating (velvetleaf [4]; Postemergence, 500 g ai/ha, 0 to 100 scale (0 no effect, 100 complete control)): 100; Velvetleaf plant response rating (velvetleaf [6]; [16]): 100
5 | CCc1cc(C(=O)NCC(F)(F)F)nn1Cc1cc(OC(F)F)nn1C [Compound 206] | – | – | – | – | – | – | – | – | – | – | – | – | – | – | – | 0 | – | – | 100 | 90 | Foxtail, Giant plant response rating (0 to 100 scale) (foxtail, giant [2]; [18]): 0; Barnyardgrass plant response rating (0 to 100 scale, 0 is no effect, 100 is complete control) (barnyardgrass [5]; [18]): 0

From patent US20150105252A1, “SUBSTITUTED PYRAZOLES AS HERBICIDES” (E I DU PONT DE NEMOURS AND COMPANY, priority 2013, published 2015)
